In EP0405997B1, “Antibiotic agent” (Merck & Co., Inc., priority 1989, dated 1991):
≈ marks a conversion by molar mass, not a printed value. Like-named read-outs stand apart in the source and are kept apart here. Numbered stars: 1 amine (or outer) side, 2 acyl side, 3 side chain; on linkers, the order of the positions; unused ones are H or OH. Bridge positions count the residues as written; N and C are the ends. Square brackets hold non-standard residues; d marks the D form. Peptide text beside a SMILES is read from it. * marks the point of attachment. Orn(4R-OH,5R-OH) = O=C([C@H](C[C@@H](O)[C@@H](O)N[*:3])N[*:1])[*:2]; Tetradecanoyl(10R,12S-Me2) = CC[C@H](C)C[C@H](C)CCCCCCCCC(=O)*; hTyr(3S-OH,4S-OH) = N[C@H](C(=O)O)[C@H](O)[C@@H](O)c1ccc(O)cc1; Gln(3R-OH) = NC(=O)C[C@@H](O)[C@H](N)C(=O)O; Pro(3S-OH) = O=C(O)[C@H]1NCC[C@@H]1O; Hyp = O=C(O)[C@@H]1C[C@@H](O)CN1

Legend:
[1] = Solubility in organic solvents; type: physicochemical; conditions: methanol, ethanol, dimethylformamide, dimethyl sulfoxide, ethyl acetate and the like
Pneumocystis carinii = conditions: dexamethasone-immunosuppressed male C3H/Hej mice; 0.5 mg/kg intraperitoneally twice daily for two weeks; lung tissue
Experimental: In a representative study ten male C3H/Hej mice, weighing 22-24 gms. each, were immunosuppressed by the addition of dexamethasone to the drinking water (8.0 mg/L) for six weeks to induce the development of P. carinii infections. To enhance the infection the mice were also maintained on a low protein diet. At the beginning of the seventh week the mice were divided into two groups. Both groups continued to receive dexamethasone in the drinking water and low protein diet for the remainder of the study. Mice in Group I were injected intraperitoneally twice daily with 0.5 ml of a 20% DMSO solution as a vehicle control. […] The treatment period lasted two weeks.
At the end of the treatment period (a total of eight weeks immunosuppression) the animals were sacrificed and the lung tissues removed. The tissue was then processed to determine the number of cysts for each animal.

Candida tropicalis = experiment: microbe, parasite or virus in culture; conditions: read-out: Minimum Fungicidal Concentration
Experimental: (§1) In carrying out the assay, Compound I was solubilized in 10 percent dimethyl sulfoxide (DMSO) and diluted to 2560 µg/ml. The compounds were further diluted to 256 µg/ml in YNBD. Then 0.15 ml of the suspension was dispensed to the first row of a 96-well plate (each well containing 0.15 ml of YNDB) resulting in a drug concentration of 128 µg/ml. Two-fold dilutions were then made to obtain final drug concentrations ranging from 128 to 0.06 µg/ml.
(§2) The yeast cultures, maintained on Sabouraud dextrose agar were transferred to YM broth (Difco) and incubated overnight at 35°C with shaking (250 rpm). After incubation, each culture was diluted in sterile water to yield a final concentration of 1-5 x 10⁶ colony forming units (CFU)/ml.
(§3) 96-well microplates were inoculated using a MIC-2000 (Dynotech) which delivers 1.5 µl per well yielding a final inoculum per well of 1.5-7.5 x 10³ cells. The microplates were incubated at 35°C for 24 hours. The minimum inhibitory concentrations (MICs) were recorded as the lowest concentrations of drug showing no visible growth.
(§4) After recording the MIC, the plates were shaken to resuspend the cells. Thereafter, 1.5 µl samples from the wells in the 96-well microplate were transferred to a single well tray containing Sabouraud dextrose agar. The inoculated trays were incubated 24 hours at 28°C and then read. The MFC is defined as the lowest concentration of drug showing no growth or less than 4 colonies per spot.

Candida parapsilosis = experiment: microbe, parasite or virus in culture
Experimental: as §1, §2, §3, §4

Candida albicans = experiment: microbe, parasite or virus in culture
Experimental: as §1, §2, §3, §4

CC[C@H](C)C[C@H](C)CCCCCCCCC(=O)N[C@H]1C[C@@H](O)[C@@H](O)NC(=O)[C@@H]2[C@@H](O)CCN2C(=O)[C@H]([C@H](O)CC(N)=O)NC(=O)[C@H]([C@H](O)[C@@H](O)c2ccc(O)cc2)NC(=O)[C@@H]2C[C@@H](O)CN2C(=O)[C@H]([C@@H](C)O)NC1=O [Compound I, 1-[4,5-dihydroxy-N²-(10,12-dimethyl-1-oxotetradecyl)-ornithine]-5-(3-hydroxyglutamine)-6-(3-hydroxyproline)echinocandin B] ({Tetradecanoyl(10R,12S-Me2)}-[Orn(4R-OH,5R-OH)]T[Hyp][hTyr(3S-OH,4S-OH)][Gln(3R-OH)][Pro(3S-OH)]; lactam 1-C)
solubility [1]: soluble in organic solvents | reduced the number of cysts as compared to the control animals (Pneumocystis carinii): 81% | MFC (Candida tropicalis): 2 µg/mL (≈ 1.88 µM) | Minimum Fungicidal Concentration (Candida parapsilosis; Candida parapsilosis MY 1010, YNBD medium): 8.0 µg/mL | MFC (Candida parapsilosis; Lodderomyces parapsilosis, read-out: Minimum Fungicidal Concentration): 8 µg/mL (≈ 7.51 µM) | MFC (Candida albicans; read-out: Minimum Fungicidal Concentration, Candida albicans MY 1028, YNBD medium): 1 µg/mL (≈ 0.939 µM) | MFC (Candida albicans; read-out: Minimum Fungicidal Concentration, Candida albicans MY 1208, YNBD medium): 0.5 µg/mL (≈ 0.469 µM) | MFC (Candida albicans; read-out: Minimum Fungicidal Concentration, Candida albicans MY 1585, YNBD medium): 0.5 µg/mL (≈ 0.469 µM) | MFC (Candida albicans; read-out: Minimum Fungicidal Concentration, Candida albicans MY 1750, YNBD medium): 0.25 µg/mL (≈ 0.235 µM) | MFC (Candida albicans; read-out: Minimum Fungicidal Concentration, Candida albicans MY 1783, YNBD medium): 0.5 µg/mL (≈ 0.469 µM)
